Measured values from PMC7048748, “Anxiolytic Drug FGIN-1-27 Ameliorates Autoimmunity by Metabolic Reprogramming of Pathogenic Th17 Cells” (Scientific Reports, 2020).

Tests used:
TSPO = target: T1, TSPO (Rattus norvegicus, UniProt P16257); assay: TSPO (BZDp) antagonist radioligand displacement assay; assay type: binding
T1 construct: Eurofins Cerep (France), contract assay
Description: (§1) We explored the mechanism of action for FGIN-1-27 and whether the effect of FGIN-1-27 on Th17 differentiation was driven by TSPO, the reported target of this compound. We used two approaches: first, we investigated the correlation between FGIN-1-27 induced IL-17 down-regulation and binding to TSPO. For the binding studies, we used a biochemical radio ligand displacement assay with the well-characterized TSPO ligand PK-11195 as a tracer. […] Secondly, we purified CD4^+ T cells from spleen and lymph nodes of mice that lacked global expression of TSPO (TSPO KO mice)[19]. We added FGIN-1-27 to the cultures of CD4^+ T cells from controls or TSPO KO mice that were induced towards the Th17 differentiation program.
FGIN-1-27 were tested at 8 doses (0.3–40 µM) in the TSPO (BZDp) antagonist radioligand displacement assay at Eurofins Cerep (France). Radiolabeled PK11195 was used as a control and TSPO binding was calculated as a percent inhibition of control specific binding using the formula 100-(measured specific binding*100/control specific binding).
(h) Dose response plot showing effect of FGIN-1-27 on intracellular IL-17 and viability in pre- differentiated Th17 cells after re- stimulation. Data is normalized against […]
(i) Mean clinical scores of mice following active induction of EAE. Mice were injected i/p twice daily with vehicle or FGIN-1-27 for 7 days. Data are pooled from 5 mice/group. […]

[1] = test system: Th17 cells from TSPO KO mice; assay: Th17 differentiation with CD4 T cells from TSPO knockout mice; assay type: cell-based, mouse; conditions: compared with T cells expressing TSPO
Description: as §1
Figure 3 Effect of FGIN-1-27 on Th17 Differentiation is Independent of TSPO. (a) Plot showing correlation between binding of FGIN-1-27 to TSPO and effect on IL-17 production. Binding of FGIN-1-27 to TSPO was measured using a biochemical radiolabeled displacement assay and radiolabeled PK-11195 was used as a control ligand. (b) Immunoblot to detect TSPO from spleens of either control or TSPO knockout mice (upper panel) and dose response plot for FGIN-1-27 showing effect on Th17 differentiation using purified CD4 T cells from spleens of either control or TSPO knockout mice. IL-17 production was normalized using DMSO treatment from control cells as 100%. […]

Th17 cells = assay: Transcript levels by qPCR in Th17 cells; assay type: cell-based, mouse
Protocol: Figure 1 FGIN-1-27 Inhibits Th17 Differentiation. Naïve CD4 T cells from spleens and lymph nodes of C57BL/6 mice were differentiated under Th17 polarization conditions and were treated with DMSO (control) or FGIN-1-27. (a) Dose response plot showing effect of FGIN-1-27 on intracellular IL-17 and viability on day 4 post activation quantified by flow cytometry. Data is normalized against DMSO (100%). […] (b) Dot plots showing DMSO or FGIN-1-27 treated cells stained for surface CD4, CD44, intracellular IL-17 and intranuclear RORγt. (c) Transcript levels for the indicated genes after 24 hours of treatment with DMSO or FGIN-1-27 quantified by qPCR. Data was normalized to a housekeeping gene, β-actin. Data are representative of at least 3 independent experiments and the error bars indicate standard deviation.
Figure 5 FGIN-1-27 induces amino acid starvation response (AAR). (a) MA-plot showing shrunken log2 fold-changes of detected genes between the DMSO and FGIN-1-27 RNA-seq samples, ranked by average normalized count. Red dots indicate differentially expressed genes at adjusted p-value <0.05. (b) Transcript levels for the indicated genes after 24 hours of treatment with DMSO or FGIN-1-27 quantified by qPCR. The error bars represent SD. (c) Western blot analysis for phosphorylated eIF2α and ATF4 24 hours after treatment with DMSO or FGIN-1-27 (5 and 10 µM). Data are representative of 3 independent experiments. (d) Amino acids in Th17 cells measured 72 hours after treatment with FGIN-1-27. The error bars represent SD. (e) ROS was measured using cell permeant reagent 2′,7′ –dichlorofluorescin diacetate (DCFDA) at 24 hours following treatment with FGIN-1-27. Filled grey histogram-DMSO, dotted line-FGIN-1-27 (10 µM) and dashed line indicates FGIN-1-27 (5 µM). […]
Total RNA extractions were performed with the RNAeasy kit (Qiagen) followed by cDNA synthesis using High capacity cDNA Reverse Transcription kit (Applied Biosystems). Quantitative PCR was performed on a ViiA 7 (Applied Biosystems) using SYBR Fast qPCR master mix (Kapa Biosystems). […]

T1 sequence (P16257 whole entry): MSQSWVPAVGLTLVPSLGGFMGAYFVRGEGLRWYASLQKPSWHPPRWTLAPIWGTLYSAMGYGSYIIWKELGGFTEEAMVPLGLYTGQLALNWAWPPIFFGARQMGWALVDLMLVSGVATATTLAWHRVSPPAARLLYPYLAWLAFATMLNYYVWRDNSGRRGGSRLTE

## CCCCCCN(CCCCCC)C(=O)Cc1c(-c2ccc(F)cc2)[nH]c2ccccc12 [FGIN-1-27, N, N-di-n-hexyl 2-(4-fluorophenyl) indole-3-acetamide]
TSPO; 0.3 µM, lowest validated testing concentration
  displacement of PK-11195: more than 90%
TSPO; 0.3–40 µM
  binding to TSPO: high affinity
[1]
  Th17 differentiation in T cells from TSPO KO mice: similarly to T cells expressing TSPO
Th17 cells; 24 hours
  ATF4 target genes Asns and Gpt2: induced
Th17 cells; 24 hours of treatment, p < 0.0001
  expression of RORγt target genes (Il17a, Il17f, Il23r, Ltb4r1, Ccr6) and Stat3: significantly downregulated
Th17 cells; 72 hours post treatment
  CD5L transcript: substantial up-regulation
